Results: publication PMC8072580, “Predicting Pharmacokinetic Properties of Potential Anticancer Agents via Their Chromatographic Behavior on Different Reversed Phase Materials” (International Journal of Molecular Sciences, 2021)
Like-named read-outs stand apart in the source and are kept apart here.

How the values were obtained:
[1] = Micellar liquid chromatography (MLC), ODS-2 column, Brij 35 effluent: chromatographic lipophilicity; format: physicochemical; conditions: pH 7.4, ODS-2 column, 25 °C
Description: There are several theories that describe the effect of the concentration of the surfactant in the effluent on the retention of the solute in MLC [23]. The following Foley’s equation is best known in lipophilicity studies:(2) 1/k=1/km+KAM/km[M] where [M] is the total concentration of the surfactant in the mobile phase minus CMC; KAM is the constant that describes solute-micelle binding; and km is the solute retention parameter at the micellar concentration of zero, i.e., when the concentration of the surfactant monomer is equal to CMC. The KAM and km parameters can be evaluated from the slope and intercept of the experimental 1/k vs. [M] relationships.
Equation (2) describes a linear dependence between decreasing retention and increasing micelle concentration. This equation is valid for aqueous solutions of surfactant or mobile phases with the same concentrations of the organic modifier. The micellar retention parameter, log km, is considered analogous to the log kw parameter evaluated in RPLC. According to the information presented above, this parameter is considered to be a lipophilicity descriptor, and Equation (2) is a simple way to indirectly determine the lipophilic properties of compounds. It is postulated that retention in micellar chromatography depends on hydrophobic (lipophilic), electronic, and steric features of the compounds in a similar way as has been noted concerning pharmacokinetic phenomena. The additional similarity results from the fact that the phospholipids, cholesterol, fatty acids, and triglycerides included in the extracellular and intracellular fluids also form micelles with proteins.
(§1) In our investigations, the micellar retention factors were used to calculate the log km parameters using Equation (2) (Table 2). For all of the compounds 1-19, the relationships of 1/k vs. [M] were obtained with very good linearity, confirming that Foley’s equation correctly describes the effect of the concentration of the surfactant in the effluent on the retention of the solute. In our studies, the micellar log km parameters for three pharmacologically active sets of compounds 1-6, 7-14, and 15-19 and the log k factors for solutes 15-19 obtained on IAM and end-capped ODS stationary phases were determined experimentally. All these retention factors, together with the log kw values for compounds 1-14 obtained in our earlier investigations on IAM and end-capped ODS stationary phases, were used as lipophilicity descriptors in the QSARs methodology to predict the pharmacokinetic descriptors of the compounds that were tested.
(§2) Shimadzu Vp (Shimadzu, Izabelin, Polska) liquid chromatographic system was used in HPLC measurements. It was equipped with an LC 10AT pump, SPD 10A UV–Vis detector, SCL 10A system controller, CTO-10 AS chromatographic oven, and Rheodyne injector valve with a 20 μL loop. As the stationary phases, 3 different revered-phase materials were applied: Spherisorb ODS-2 column, 125 × 4 mm i.d., 5 μm (Merck, Lublin, Poland), Regis IAM.PC.DD2 column, 100 × 4.6 mm i.d., 10 μm (Morton Grove, Illinois, USA), and Purosphere RP-18e column, 125 × 4 mm i.d., 5 μm (Merck, Lublin, Poland).
In the MLC technique with an ODS-2 column, buffered Brij 35 mixtures (0.15; 0.125, 0.10, and 0.075 mol/L) with 7% (v/v) addition of isopropanol were used as mobile phases. The buffer was prepared from 0.01 mol/L solutions of Na2HPO4 and citric acid, and the pH 7.4 value was fixed before mixing with an organic modifier. The flow rate was 1 mL/min. Buffered acetonitrile mixtures were used as effluents with the IAM column. Acetonitrile concentration, expressed as a volume fraction, was changed in the range of 0.2–0.5, with the constant step of 0.1. The flow rate was 1.3 mL/min. Acetonitrile concentration was changed in the range of 0.3–0.6 with the RP-18e column, with the constant step of 0.1 and flow rate of 0.1 mL/min. As solutes tested there were used 19 newly designed structurally related compounds. […]

[2] = set-up: method as in PMID 31864156; conditions: IAM.PC.DD2 column, buffered acetonitrile; cited from earlier work
[3] = set-up: method as in PMID 31864156; conditions: end-capped ODS column, aqueous acetonitrile; cited from earlier work
human cancer cells = system: human cancer cells; set-up: method as in PMID 31864156, PMID 16545495, PMID 25528370; conditions: cited from earlier work
[4] = Immobilized artificial membrane (IAM.PC.DD2) chromatography: log kw,IAM; format: physicochemical; conditions: IAM.PC.DD2 column, buffered acetonitrile 0.2-0.5, 25 °C
Description: as §1, §2
(§3) In the MLC technique with an ODS-2 column, buffered Brij 35 mixtures (0.15; 0.125, 0.10, and 0.075 mol/L) with 7% (v/v) addition of isopropanol were used as mobile phases. The buffer was prepared from 0.01 mol/L solutions of Na2HPO4 and citric acid, and the pH 7.4 value was fixed before mixing with an organic modifier. The flow rate was 1 mL/min. Buffered acetonitrile mixtures were used as effluents with the IAM column. Acetonitrile concentration, expressed as a volume fraction, was changed in the range of 0.2–0.5, with the constant step of 0.1. The flow rate was 1.3 mL/min. Acetonitrile concentration was changed in the range of 0.3–0.6 with the RP-18e column, with the constant step of 0.1 and flow rate of 0.1 mL/min. As solutes tested there were used 19 newly designed structurally related compounds. Samples were dissolved in acetonitrile c.a. 0.005 mg/mL. The compounds were detected under UV light at λmax 254 nm. All measurements were carried out at a constant temperature (25 °C). The dead time values were measured from non-retained compound (e.g., sodium chloride) peaks. All reported k values are the average of at least 3 independent measurements.

[5] = End-capped ODS (RP-18e) column chromatography: log kw,ODS; format: physicochemical; conditions: acetonitrile 0.3-0.6, 25 °C
Description: as §1, §2, §3

[6] = 0.075 M Brij 35, 7% isopropanol
[7] = 0.125 M Brij 35, 7% isopropanol

Row | SMILES | k (MLC retention factor) [1, 6] | k (MLC retention factor) ([1]; 0.1 M Brij 35, 7% isopropanol) | k (MLC retention factor) [1, 7] | k (MLC retention factor) ([1]; 0.15 M Brij 35, 7% isopropanol) | log kw,IAM [2] | log kw,ODS [3] | antiproliferative effects in cancer cells compared with normal cells (human cancer cells) | log kw,IAM [4] | log kw,ODS [5]
1 | O=c1c(C(F)(F)F)nnc2n1CCN2c1ccccc1Cl [Compound 11] | 10.61 | 9.36 | 8.27 | 7.66 | 0.88 [19] | 1.86 [19] | clearly higher antiproliferative effects in cancer cells than in normal cells |  | 
2 | O=c1c(C(F)(F)F)nnc2n1CCN2c1cccc(Cl)c1 [Compound 12] | 36.90 | 29.09 | 22.17 | 19.83 | 1.66 [19] | 2.43 [19] |  |  | 
3 | O=c1c(C(F)(F)F)nnc2n1CCN2c1ccc(Cl)cc1 [Compound 13] | 41.71 | 32.28 | 25.32 | 22.45 | 1.58 [19] | 2.40 [19] |  |  | 
4 | O=c1c(C(F)(F)F)nnc2n1CCN2c1ccc(Cl)c(Cl)c1 [Compound 14] | 59.61 | 44.28 | 32.68 | 28.56 | 2.29 [19] | 2.96 [19] |  |  | 
5 | CCOC(=O)c1nnc2n(c1=O)CCN2c1ccccc1 [Compound 15] | 2.09 | 1.90 | 1.81 | 1.84 |  |  |  | 0.48 | 1.21
6 | CCOC(=O)c1nnc2n(c1=O)CCN2c1ccc(C)cc1 [Compound 16] | 4.49 | 4.04 | 3.81 | 3.75 |  |  |  | 1.93 | 2.80
7 | CCOC(=O)c1nnc2n(c1=O)CCN2c1cccc(Cl)c1 [Compound 17] | 10.12 | 8.72 | 8.00 | 8.00 |  |  | clearly higher antiproliferative effects in cancer cells than in normal cells | 1.73 | 2.62
8 | CCOC(=O)c1nnc2n(c1=O)CCN2c1ccc(Cl)cc1 [Compound 18] | 9.94 | 8.48 | 7.53 | 7.75 |  |  |  | 1.12 | 1.92
9 | CCOC(=O)c1nnc2n(c1=O)CCN2c1ccc(Cl)c(Cl)c1 [Compound 19] | 24.39 | 18.98 | 14.97 | 14.81 |  |  | clearly higher antiproliferative effects in cancer cells than in normal cells | 3.36 | 3.24
